The subject of data set [1] is EJ. The data set can be described thus: Induction of apoptosis in human EJ cells assessed as early apoptotic cells at 5 uM after 24 hrs by annexin V-FITC/propidium iodide staining-based flow cytometric analysis (reference value: 0.01 to 0.04%). The format is functional. Background: In flow cytometry, cells or beads pass a laser one at a time.
Data set [2] deals with EJ. The data set can be described thus: Induction of necrosis in human EJ cells assessed as disruption of membrane integrity at 15 uM after 1 hr by propidium iodide uptake assay. In kind it is functional, cell-based.
The next data set relates to Jurkat. As to the kind of experiment: Cytotoxicity against human Jurkat cells assessed as growth inhibition after 72 hrs by MTT assay. In kind it is functional, cell-based.
Data set [3] has as its system EJ. As to the kind of experiment: Cytotoxicity against human EJ cells assessed as growth inhibition after 72 hrs by MTT assay. The format is functional, cell-based. For orientation: Formazan colour is commonly taken as a measure of viable cells.
The next data set deals with HeLa. As to the kind of experiment: Cytotoxicity against human HeLa cells assessed as growth inhibition after 72 hrs by MTT assay. The format is functional, cell-based.
In data set [4] the test system is EJ. The data set can be described thus: Induction of apoptosis in human EJ cells assessed as formation of apoptotic bodies at 5 uM after 24 hrs by Hoechst 33342 staining-based confocal microscopic analysis. The format is functional, cell-based.
Data set [5] relates to EJ. As to the kind of experiment: Induction of apoptosis in human EJ cells assessed as decrease in procaspase-9 level at 5 uM after 24 hrs by Western blot analysis. In kind it is functional, cell-based. On the technique in general: Immunoblotting shows a protein as a band on a membrane.
The test system of data set [6] is EJ. As to the kind of experiment: Induction of apoptosis in human EJ cells assessed as viable cells at 5 uM after 24 hrs by annexin V-FITC/propidium iodide staining-based flow cytometric analysis (reference value: 99.6%). The format is functional. The conditions noted are these: read-out: Activity.
For another data set, the system named is PC-3. As to the kind of experiment: Cytotoxicity against human PC3 cells assessed as growth inhibition after 72 hrs by MTT assay. The following applies: PC-3, 72 h. In kind it is functional, cell-based.
The test system of data set [7] is EJ. The data set can be described thus: Induction of apoptosis in human EJ cells assessed as late apoptotic cells at 5 uM after 24 hrs by annexin V-FITC/propidium iodide staining-based flow cytometric analysis (reference value: 0.08 to 0.22%). The format is functional.
Another data set deals with 5637. The data set can be described thus: Cytotoxicity against human 5637 cells assessed as growth inhibition after 72 hrs by MTT assay. The following applies: Homo sapiens, 5637, 72 h. In kind it is functional, cell-based.
Data set [8] has as its system EJ. As to the kind of experiment: Induction of apoptosis in human EJ cells assessed as increase in cytosolic cytochrome c level at 5 uM after 24 hrs by Western blot analysis. In kind it is functional, cell-based.
Data set [9] concerns EJ. The data set can be described thus: Cytotoxicity against human EJ cells assessed as cell death at 10 to 20 uM after 1 hr by MTT assay. In kind it is functional, cell-based.
For data set [10], the system named is EJ. The data set can be described thus: Induction of apoptosis in human EJ cells assessed as caspase-8 activation at 5 uM after 24 hrs by Western blot analysis. The format is functional, cell-based.
Data set [11] concerns EJ. As to the kind of experiment: Induction of apoptosis in human EJ cells assessed as necrotic cells at 5 uM after 24 hrs by annexin V-FITC/propidium iodide staining-based flow cytometric analysis (reference value: 0.28 to 0.30%). The format is functional.
Data set [12] is described as follows: Hemolytic activity in mouse RBC at 100 uM after 1 hr by ELISA relative to control. In kind it is ADME, cell-based, Erythrocyte. The following applies: for hemolysis at 1 h, 100 µM: mouse red blood cells, read-out: Activity; for Activity: erythrocyte, 1 h, 100 µM.
Data set [13] deals with EJ. The data set can be described thus: Induction of apoptosis in human EJ cells assessed as decrease in procaspase-3 level at 5 uM after 24 hrs by Western blot analysis. In kind it is functional, cell-based.
Data set [14] relates to EJ. The data set can be described thus: Induction of apoptosis in human EJ cells assessed as nuclear condensation at 5 uM after 24 hrs by Hoechst 33342 staining-based confocal microscopic analysis. In kind it is functional, cell-based.
In data set [15] the test system is EJ. The data set can be described thus: Induction of apoptosis in human EJ cells assessed as nuclear fragmentation at 5 uM after 24 hrs by transmission electron microscopic analysis. The format is functional, cell-based.
Data set [16] deals with EJ. As to the kind of experiment: Induction of apoptosis in human EJ cells assessed as mitochondrial matrix condensation at 5 uM after 24 hrs by transmission electron microscopic analysis. The format is functional, cell-based.
Data set [17] has as its system EJ. The data set can be described thus: Induction of apoptosis in human EJ cells assessed as disruption of mitochondria with frequent fusion between great number of vaculoes at 5 uM after 24 hrs by transmission electron microscopic analysis. In kind it is functional, cell-based.
For data set [18], the system named is EJ. The data set can be described thus: Induction of necrosis in human EJ cells assessed as disruption of membrane integrity measuring loss of microvilli at 15 uM after 1 hr by scanning electron microscopic analysis. In kind it is functional, cell-based.
The test system of data set [19] is EJ. The data set can be described thus: Induction of necrosis in human EJ cells assessed as disruption of membrane integrity measuring pore formation at 15 uM after 1 hr by scanning electron microscopic analysis. The format is functional, cell-based.
Data set [20] has as its system EJ. The data set can be described thus: Induction of apoptosis in human EJ cells assessed as peripheral nuclear chromatin condensation at 5 uM after 24 hrs by transmission electron microscopic analysis. In kind it is functional, cell-based.
The test system of data set [21] is EJ. The data set can be described thus: Induction of apoptosis in human EJ cells assessed as cristae swelling at 5 uM after 24 hrs by transmission electron microscopic analysis. In kind it is functional, cell-based.
Data set [22] relates to EJ. The data set can be described thus: Cytotoxicity against human EJ cells assessed as cell death up to 20 uM measured within 1 hr by MTT assay. In kind it is functional, cell-based.
For data set [23], the system named is EJ. The data set can be described thus: Cytotoxicity against human EJ cells assessed as cell death at 5 to 20 uM after 24 hrs by MTT assay. In kind it is functional, cell-based.

One may read the pIC50 as −log10 of the IC50, conventionally taken in molar units.

Structures are written as SMILES. pIC50: −log10 of the molar value. Activity calls are given as the source filed them. No cut-off for these calls is given here.

With `CC(C)c1ccc2c(c1)CC[C@H]1[C@](C)(CN)CCC[C@]21C`, the Activity was determined as 87.9% with EJ [1], 5.85% in the data set with EJ [7] and 0.13% with EJ [11]. In addition, the outcome in the data set with EJ [2], in the data set on EJ [4], in the data set with EJ [5], in the data set on EJ [8], in the data set on EJ [9] and in the data set with EJ [14] was Active. For the same molecule, the pIC50 was 5.31 in the data set with Jurkat; 5.32 with EJ [3]; 5.11 in the data set with HeLa; 5.10 with PC-3; 5.06 in the data set on 5637. The viability at 5 µM with EJ [6] was 6.16%. Moreover, the result in the data set with EJ [10] and in the data set on EJ [13] was inactive. Also, in [12], the hemolysis at 1 h, 100 µM was 17.9%.
Turning to `CC(C)c1ccc2c(c1)CC[C@H]1[C@](C)(C(=O)O)CCC[C@]21C` [DEHYDROABIETIC ACID], the pIC50 is 4.59 in the data set on Jurkat; 4.60 in the data set on EJ [3]; 4.55 in the data set on HeLa; 4.55 in the data set on PC-3; 4.56 with 5637.
As to `CC(C)c1ccc2c(c1)CC[C@H]1[C@](C)(CNC(=S)N[C@H]3CCCC[C@@H]3N)CCC[C@]21C`, the values for the Activity with EJ [1], in the data set on EJ [7] and in the data set with EJ [11] were 81.9%, 9.06% and 0.25%, respectively. Also, the outcome in the data set on EJ [2], in the data set with EJ [15], in the data set with EJ [16], in the data set with EJ [17], in the data set with EJ [18] and with EJ [19] was Active. For the same molecule, the result with EJ [4], in the data set on EJ [5], with EJ [20], with EJ [8], with EJ [9] and in the data set with EJ [14] was Active. For the same molecule, in the data set with EJ [21], the outcome was Active. For the same molecule, the pIC50 was 5.46 in the data set on Jurkat; 5.52 in the data set on EJ [3]; 5.43 with HeLa; 5.45 in the data set on PC-3; 5.50 in the data set with 5637. The viability at 5 µM with EJ [6] is 8.8%. The result in the data set with EJ [10] and in the data set with EJ [13] was inactive. Further, the hemolysis at 1 h, 100 µM in data set [12] came to 74.4%.
For the molecule `C=C[C@H]1CN2CC[C@H]1C[C@H]2[C@H](O)c1ccnc2ccc(OC)cc12` [QUININE], in the data set on EJ [22], the result was inactive. In addition, the pIC50 in the data set with Jurkat, in the data set on EJ [3], in the data set with HeLa, in the data set on PC-3 and in the data set with 5637 was below 4.30 in each case.
For `C=CC1CN2CCC1CC2[C@H](NC(=S)NC[C@]1(C)CCC[C@]2(C)c3ccc(C(C)C)cc3CC[C@@H]12)c1ccnc2ccc(OC)cc12` (stereo partly drawn), the Activity in the data set with EJ [1] is given as 89%; with EJ [7], 4.01%; with EJ [11], 0.12%; in data set [12] it was “Non-toxic”. Moreover, the outcome in the data set with EJ [2], with EJ [22], in the data set on EJ [18], in the data set on EJ [19], in the data set with EJ [10] and with EJ [13] was inactive. The outcome with EJ [15], in the data set with EJ [16], in the data set on EJ [17], with EJ [4], in the data set with EJ [5] and in the data set on EJ [20] was Active. Besides, the outcome in the data set with EJ [8], with EJ [14], in the data set with EJ [23] and in the data set on EJ [21] was Active. For the same molecule, the negative-log IC50 (pIC50) is 5.66 in the data set with Jurkat; 5.68 with EJ [3]; 5.49 with HeLa; 5.53 in the data set on PC-3; 5.58 with 5637. Moreover, the viability at 5 µM in the data set with EJ [6] came to 6.83%.
Consider `CC(C)c1ccc2c(c1)CC[C@H]1[C@](C)(CNC(=S)N[C@H]3CCCC[C@@H]3N(C)C)CCC[C@]21C`, for which the Activity came to 92.2% with EJ [1], 7.45% in the data set on EJ [7] and 0% with EJ [11]. Also, the outcome with EJ [2], in the data set with EJ [4], in the data set with EJ [5], in the data set on EJ [8] and in the data set with EJ [14] was Active. Also, the pIC50 in the data set with Jurkat was 5.36; in the data set on EJ [3], 5.38; in the data set on HeLa, 5.29; with PC-3 it was 5.26; in the data set on 5637, 5.34. The viability at 5 µM with EJ [6] was 0.32%.
As to `C=C[C@H]1C[N@@]2CC[C@H]1C[C@H]2[C@H](O)c1ccnc2ccc(OC)cc12` [QUININE], the Activity entry in [12] is reported as “Non-toxic”.
On to `CC(C)c1ccc2c(c1)CC[C@H]1[C@](C)(CNC(=S)N[C@@H]3CCCC[C@H]3N3CCCC3)CCC[C@]21C`, for which the Activity was determined as 94.6% in the data set with EJ [1], 4.73% in the data set with EJ [7] and 0.01% with EJ [11]. The outcome with EJ [2], with EJ [4], in the data set on EJ [5], in the data set with EJ [8] and in the data set with EJ [14] was Active. The negative logarithm of the IC50 (pIC50) was 5.47 in the data set with Jurkat; 5.46 with EJ [3]; 5.35 in the data set with HeLa; 5.33 in the data set with PC-3; 5.44 in the data set with 5637. Moreover, the viability at 5 µM in the data set with EJ [6] stood at 0.64%.
Take `CC(C)c1ccc2c(c1)CC[C@H]1[C@](C)(CNC(=S)N[C@H]3CCCC[C@@H]3N3CCCC3)CCC[C@]21C`: the Activity in the data set on EJ [1] was found to be 95.1%; in the data set with EJ [7], 4.53%; in the data set with EJ [11] it was 0%. The result with EJ [2], with EJ [4], in the data set with EJ [5], in the data set with EJ [8] and with EJ [14] was Active. The negative-log IC50 (pIC50) in the data set on Jurkat is 5.35; in the data set with EJ [3], 5.37; with HeLa, 5.24; in the data set on PC-3, 5.18; in the data set with 5637, 5.29. Also, the viability at 5 µM with EJ [6] is 0.35%.

(Values after ChEMBL document CHEMBL2396547, “Anticancer effects of a novel class rosin-derivatives with different mechanisms” (Bioorg Med Chem Lett, 2013).)
